Format in all cases: cell-based
One test concerns MM.1S cells. As to the kind of experiment: Human myeloma cell line MM.1S proliferation suppression test. As to conditions: MM1.S, 72 h, compound 10 μM, 3 days, WST-1 or WST-8, read-out: cell survival rate (% of control) MM.1S. The method in brief: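 Cells at 2×10^5 cells/mL in RPMI1640 + 10% FCS, mixed 1:1 with compound diluted from DMSO stock (final 10 μM) versus DMSO-only control. Cultured 3 days at 37 °C, 5% CO2; proliferation read with WST-1 or WST-8.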
For orientation: Tetrazolium dyes change colour on reduction, which living cells bring about.

Another test concerns REC-1 cells. The test is described as follows: Human mantle cell lymphoma cell line REC-1 proliferation suppression test. The note with it: Rec1, 72 h, compound 10 μM, 3 days, WST-8, read-out: cell survival rate (% of control) REC-1. The method in brief:
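Cells were plated at 1.3×10^5 cells/mL, and the next day test compound was added at a final 10 μM, with DMSO-only medium as control. After 3 days at 37° C under 5% CO2, proliferation was measured with WST-8.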

The next test deals with Pfeiffer cells. The test is described as follows: Human diffuse large B-cell lymphoma cell line Pfeiffer proliferation suppression test. The note with it: 144 h, compound 10 μM, 3 days + re-plating with compound 3 days, WST-8, read-out: cell survival rate (% of control) Pfeiffer. In outline:
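Pfeiffer cells were seeded at 1.3×10^5 cells/mL and dosed the next day with compound at 10 μM final (DMSO control), then grown 3 days at 37 °C, 5% CO2. An aliquot was then passaged into a fresh plate with compound re-added at 10 μM final for 3 more days. Proliferation was read by WST-8.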

This is an account of results in patent US11299485B2, “Thiophene derivative and use thereof” (FUJIMOTO CO., LTD., priority 2018, dated 2022).

Turning to `CC(C)Oc1cscc1-c1cn(C2CCC(=O)NC2=O)nn1` (stereo not drawn) [compound 26, 3-[4-(4-isopropoxythiophen-3-yl)-1H-1,2,3-triazol-1-yl]piperidine-2,6-dione], the viability at 10 µM with MM.1S cells was found to be 40%; in the test on REC-1 cells, 23%; in the test on Pfeiffer cells it was 82%.
In the same order, the values of `O=C1CCC(n2cc(-c3cscc3OCc3cc4ccccc4s3)nn2)C(=O)N1` (stereo not drawn) [compound 47, 3-{4-[4-(benzo[b]thiophen-2-ylmethoxy)thiophen-3-yl]-1H-1,2,3-triazol-1-yl}piperidine-2,6-dione] are 64%, 33% and 99%.
For `CCCOc1cscc1-c1cn(C2CCC(=O)NC2=O)nn1` (stereo not drawn) [compound 21, 3-[4-(4-propoxythiophen-3-yl)-1H-1,2,3-triazol-1-yl]piperidine-2,6-dione], the results for the viability at 10 µM in the test on MM.1S cells, in the test on REC-1 cells and with Pfeiffer cells were 75%, 63% and 106%, respectively.
In the case of `COc1cscc1-c1nnn(C2CCC(=O)NC2=O)c1I` (stereo not drawn) [compound 49, 3-[5-iodo-4-(4-methoxythiophen-3-yl)-1H-1,2,3-triazol-1-yl]piperidine-2,6-dione], the figures for the viability at 10 µM in the test on MM.1S cells, in the test with REC-1 cells and in the test with Pfeiffer cells were 48%, 24% and 75%, respectively.
As for `O=C1CCC(n2cc(-c3cscc3OCC3CCCCC3)nn2)C(=O)N1` (stereo not drawn) [compound 30, 3-{4-[4-(cyclohexylmethoxy)thiophen-3-yl]-1H-1,2,3-triazol-1-yl}piperidine-2,6-dione], the values for the viability at 10 µM in the test on MM.1S cells, with REC-1 cells and with Pfeiffer cells were 59%, 49% and 99%, respectively.
Taken in the same sequence, the figures for `COc1c(-c2cn(C3CCC(=O)NC3=O)nn2)csc1Br` (stereo not drawn) [compound 23, 3-[4-(5-bromo-4-methoxythiophen-3-yl)-1H-1,2,3-triazol-1-yl]piperidine-2,6-dione] were 75%, 70% and 97%.
